Results from the supplement of paper PMC7600603.

What was measured:
DLD1 NRF2-GOF [1] = details: 72 h; CellTiter-Glo viability
Procedure, shortened: (§1)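 DLD1 colorectal cancer cells, an isogenic pair either NRF2 wild-type or carrying a CRISPR gain-of-function, were cultured in DMEM with 10% FBS and treated in 384-well plates with library compounds at 5 concentrations across a 10,000-fold range. CellTiter-Glo viability was read on a Pherastar FS reader after 72 h and normalised to vehicle wells and 100-μM positive-control wells. Four-parameter logistic dose-response fits were applied. EC50 and drug sensitivity score, a normalised area under the curve, were taken from these fits.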

DLD1 NRF2-WT [2] = details: 72 h; CellTiter-Glo viability
Procedure, shortened: as §1

DLD1 NRF2-GOF [3] = test: TC50 cytotoxicity; higher = less toxic; details: 72 h; CellTox Green cytotoxicity
Procedure, shortened: (§2)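 Isogenic DLD1 colorectal cancer cells differing in NRF2 status, one line edited by CRISPR, were cultured in DMEM with 10% FBS and treated in 384-well plates with library compounds at 5 concentrations spanning a 10,000-fold range. Plates were read after 72 h with CellTox Green on a Pherastar FS reader, and signals were normalised to vehicle wells and 100-μM positive-control wells. Cytotoxicity was summarised as TC50 and as a drug sensitivity score, a normalised area under the curve, both from logistic dose-response fits.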

DLD1 NRF2-WT [4] = test: TC50 cytotoxicity; higher = less toxic; details: 72 h; CellTox Green cytotoxicity
Procedure, shortened: as §2

DLD1 NRF2-GOF [5] = test: drug sensitivity score (DSS) cytotoxicity (DSS score); higher = more toxic; extreme values may be limits of the assay; details: 72 h; CellTox Green cytotoxicity
Procedure, shortened: as §2

DLD1 NRF2-WT [6] = test: as above; details: 72 h; CellTox Green cytotoxicity
Procedure, shortened: as §2

DLD1 NRF2-GOF [7] = test: drug sensitivity score (DSS) viability (DSS score); higher = more sensitive; extreme values may be limits of the assay; details: 72 h; CellTiter-Glo viability
Procedure, shortened: as §1

DLD1 NRF2-WT [8] = test: as above; details: 72 h; CellTiter-Glo viability
Procedure, shortened: as §1

| SMILES | EC50 viability (DLD1 NRF2-GOF [1]) | EC50 viability (DLD1 NRF2-WT [2]) | TC50 cytotoxicity (DLD1 NRF2-GOF [3]) | TC50 cytotoxicity (DLD1 NRF2-WT [4]) | drug sensitivity score (DLD1 NRF2-GOF [5]) | drug sensitivity score (DLD1 NRF2-WT [6]) | drug sensitivity score (DLD1 NRF2-GOF [7]) | drug sensitivity score (DLD1 NRF2-WT [8]) |
| --- | --- | --- | --- | --- | --- | --- | --- | --- |
| COc1cc(NS(C)(=O)=O)ccc1Nc1c2ccccc2nc2ccccc12 [Amsacrine] | 1220 nM | 2400 nM | > 10000 nM | > 10000 nM | 0 | 0.7 | 6.2 | 4.4 |
| O=C1CCc2c(Oc3ccc4c(c3)[C@@H]3[C@H](O4)[C@H]3c3nc4cc(C(F)(F)F)ccc4[nH]3)ccnc2N1 [BGB-283] | 4130 nM | 1620 nM | > 10000 nM | > 10000 nM | 0 | 0 | 1.5 | 5 |
| O=C(/C=C/c1cccc(S(=O)(=O)Nc2ccccc2)c1)NO [Belinostat] | 1260 nM | 1100 nM | > 10000 nM | 1530 nM | 0 | 2.6 | 7.1 | 9.9 |
| N#CC(c1ccnc(OCc2ccc(CN3CCOCC3)cc2)n1)c1nc2ccccc2s1 (stereo not given) [Bentamapimod] | > 10000 nM | > 10000 nM | > 10000 nM | > 10000 nM | 0 | 0 | 0 | 0 |
| CCC/C=C/C=C/C(=O)O[C@H]1/C(=C/C(=O)OC)C[C@H]2C[C@H]([C@@H](C)O)OC(=O)C[C@H](O)C[C@@H]3C[C@H](OC(C)=O)C(C)(C)[C@](O)(C[C@@H]4C/C(=C/C(=O)OC)C[C@H](/C=C/C(C)(C)[C@]1(O)O2)O4)O3 [Bryostatin 1] | > 100 nM | > 100 nM | > 100 nM | > 100 nM | 0 | 0 | 2.8 | 0.2 |
| CO[C@H]1CC[C@H](N2C(=O)CNc3ncc(-c4ccc(C(C)(C)O)nc4)nc32)CC1 [CC-223] | 1710 nM | 2250 nM | > 10000 nM | > 10000 nM | 0.1 | 0 | 5.3 | 4.6 |
| COc1cc(C)[nH]c(=O)c1CNC(=O)c1c(C)n([C@H](C)C2CCOCC2)c2ccccc12 [CPI-360] | 198 nM | > 10000 nM | > 10000 nM | > 10000 nM | 0 | 0 | 7.4 | 0 |
| C=CC(=O)Nc1cc2c(Nc3ccc(F)c(Cl)c3)ncnc2cc1OCCCN1CCOCC1 [Canertinib] | 2520 nM | 1970 nM | 3210 nM | 2390 nM | 5.5 | 7.1 | 6.8 | 8.1 |
| COc1cc2c(Oc3ccc4[nH]c(C)cc4c3F)ncnc2cc1OCCCN1CCCC1 [Cediranib] | 12.1 nM | 44.2 nM | > 1000 nM | > 1000 nM | 0 | 0 | 10.2 | 7 |

Second part, led by results:

| EC50 viability (DLD1 NRF2-GOF [1]) | EC50 viability (DLD1 NRF2-WT [2]) | SMILES | TC50 cytotoxicity (DLD1 NRF2-GOF [3]) | TC50 cytotoxicity (DLD1 NRF2-WT [4]) | drug sensitivity score (DLD1 NRF2-GOF [5]) | drug sensitivity score (DLD1 NRF2-WT [6]) | drug sensitivity score (DLD1 NRF2-GOF [7]) | drug sensitivity score (DLD1 NRF2-WT [8]) |
| --- | --- | --- | --- | --- | --- | --- | --- | --- |
| 266 nM | 156 nM | CN1CC[C@H](c2c(O)cc(O)c3c(=O)cc(-c4ccccc4Cl)oc23)[C@H](O)C1 [Alvocidib] | > 10000 nM | > 10000 nM | 0 | 0.8 | 16.2 | 20.1 |
| 1380 nM | 4010 nM | Nc1ncn([C@@H]2O[C@H](CO)[C@@H](O)[C@H]2O)c(=O)n1 [Azacitidine] | > 10000 nM | > 10000 nM | 0 | 0 | 3.3 | 1 |
| > 1000 nM | 0.9 nM | Cc1cc(-c2nc(-c3ccc(OC(F)(F)F)cc3)no2)nn1Cc1ccnc(N2CCN(C3CC3)CC2)c1 [BAY 87-2243] | > 1000 nM | > 1000 nM | 0 | 0 | 1.7 | 16.2 |
| 1030 nM | > 10000 nM | C=C(c1ccc(C(=O)O)cc1)c1cc2c(cc1C)C(C)(C)CCC2(C)C [Bexarotene] | > 10000 nM | > 10000 nM | 0 | 0 | 3.9 | 0 |
| 1480 nM | 1220 nM | COc1cc(Nc2c(C#N)cnc3cc(OCCCN4CCN(C)CC4)c(OC)cc23)c(Cl)cc1Cl [Bosutinib] | 3430 nM | 3500 nM | 3.1 | 3.8 | 9.3 | 10 |
| 55.1 nM | 399 nM | COc1cc(N2CCC(N3CCN(C)CC3)CC2)ccc1Nc1ncc(Cl)c(Nc2ccccc2P(C)(C)=O)n1 [Brigatinib] | > 1000 nM | > 1000 nM | 0 | 0 | 3.4 | 1.1 |
| 3130 nM | 1780 nM | Nc1cc(C(F)(F)F)c(-c2cc(N3CCOCC3)nc(N3CCOCC3)n2)cn1 [Buparlisib] | > 10000 nM | > 10000 nM | 0 | 0.4 | 4.2 | 7 |
| > 1000 nM | > 1000 nM | COc1cc2nccc(Oc3ccc(NC(=O)C4(C(=O)Nc5ccc(F)cc5)CC4)cc3)c2cc1OC [Cabozantinib] | > 1000 nM | > 1000 nM | 0 | 0 | 1.1 | 0 |
| > 1000 nM | > 1000 nM | CNC(=O)c1ccc(-c2cnc3ncc(Cc4ccc5ncccc5c4)n3n2)cc1F [Capmatinib] | > 1000 nM | > 1000 nM | 0 | 0 | 0 | 0 |
| 7.5 nM | 6.5 nM | CC(C)C[C@H](NC(=O)[C@H](CCc1ccccc1)NC(=O)CN1CCOCC1)C(=O)N[C@@H](Cc1ccccc1)C(=O)N[C@@H](CC(C)C)C(=O)[C@@]1(C)CO1 [Carfilzomib] | 14.3 nM | 6.1 nM | 22.3 | 26.9 | 25.8 | 26.6 |
| 64.9 nM | 322 nM | CCS(=O)(=O)N1CCN(c2ccc(Nc3ncc(C(N)=O)c(NC4CC4)n3)cc2)CC1 [Cerdulatinib] | > 10000 nM | > 10000 nM | 0 | 0 | 13.8 | 4.3 |
